Reference: patent US20210077491A1, “PHARMACEUTICAL COMPOSITION” (Kowa Company, Ltd., priority 2017, published 2021)

Legend:
Type in all cases: in vivo, mouse
[1] = system: pulmonary fibrosis model mice (intratracheal bleomycin); assay: Lung weight in bleomycin-induced pulmonary fibrosis model mice, preventive dosing (Example 1); settings: male ICR mice, bleomycin 1.5 mg/kg intratracheal, lungs at day 21, FIG. 1; for lung weight as compared to the normal group: oral from the day after exposure, compound A 50 mg/kg/day, losartan 50 mg/kg/day, pirfenidone 400 mg/kg/day
Description: (§1) 6-week-old male ICR mice (Japan SLC, Inc.) were exposed to bleomycin (Nippon Kayaku Co., Ltd.) (1.5 mg/kg) dissolved in physiological saline in the trachea to prepare pulmonary fibrosis model mice.
(§2) Investigation was conducted in mice not exposed to bleomycin (exposed to physiological saline in the trachea) in the normal group (6 mice), and pulmonary fibrosis model mice exposed to bleomycin in the trachea divided into 4 groups (control, compound A 50 mg/kg/day, losartan 50 mg/kg/day, and pirfenidone 400 mg/kg/day; 10 mice in each group). From the day after exposure to bleomycin, a 0.5% aqueous solution of methylcellulose was orally administered (administered twice a day) to the normal group and the control group, the sample solution of compound A prepared above was orally administered (administered once a day) to the compound A administration group, the sample solution of losartan prepared above was orally administered (administered once a day) to the losartan administration group, and the sample solution of pirfenidone prepared above was orally administered (administered twice a day) to the pirfenidone administration group, respectively. Twenty-one days after the bleomycin exposure, the mice were anesthetized and whole lung tissues were extracted.
After washing the lung tissue extracted from the mouse with physiological saline, water was removed with a filter paper, and the wet weight was measured.

[2] = system: pulmonary fibrosis model mice (intratracheal bleomycin); assay: Amount of hydroxyproline in the lungs of bleomycin-induced pulmonary fibrosis model mice, preventive dosing (Example 1); settings: preventive: oral from the day after bleomycin exposure, FIG. 2; for hydroxyproline in the lung as compared to the control group: compound A 50 mg/kg/day, losartan 50 mg/kg/day, lungs at day 21, Dunnett test
Description: as §1, §2
The lung tissue extracted from the mouse was homogenized in a PBS solution, then mixed with an equal volume of 12N hydrochloric acid in a tube, and incubated at 110° C. for 20 to 24 hours. After the incubation, the solution was volatilized by opening the tube and continuing the incubation. […] 10 μL of the sample was added with 100 μL of chloramine T solution (1.4% chloramine T, 10% n-propanol, 80% citrate acetate buffer) and incubated at room temperature for 20 minutes, then added with 100 μL of Ehrlich's reagent (1 M p-dimethylamino benzaldehyde, 20% perchloric acid, 50% n-propanol) and incubated at 65° C. for 15 minutes, and the absorbance at 550 nm was measured to quantify the amount of hydroxyproline.

[3] = system: pulmonary fibrosis model mice (intratracheal bleomycin); assay: Amount of hydroxyproline in the lungs of bleomycin-induced pulmonary fibrosis model mice, therapeutic dosing (Example 2); settings: therapeutic: oral from the 7th day after bleomycin exposure; compound A 50 mg/kg/day, losartan 50 mg/kg/day, pirfenidone 400 mg/kg/day; lungs at day 21; Dunnett test; FIG. 3
Description: Model mice were prepared in the same manner as in Example 1.
as §2, with “From the 7th day after” for “From the day after”
The amount of hydroxyproline in the mice was measured by the same method as in Example 1.

| Compound | lung weight as compared to the normal group [1] | hydroxyproline in the lung as compared to the control group [2] | hydroxyproline in the lung as compared to the control group [3] | lung weight as compared with the control group ([1]; oral 50 mg/kg/day once a day from the day after exposure, Dunnett test p<0.05) | decrease in hydroxyproline in the lung relative to the losartan administration group ([2]; compound A 50 mg/kg/day vs losartan 50 mg/kg/day, day 21) |
| --- | --- | --- | --- | --- | --- |
| CCCCc1nc(Cl)c(CO)n1Cc1ccc(-c2ccccc2-c2nn[nH]n2)cc1 [losartan] | significant increase in lung weight | significant decrease in hydroxyproline in the lung | no significant difference |  |  |
| CCCc1nc(C(C)C)n(-c2ncc(OCC)cn2)c(=O)c1Cc1ccc(-c2ccccc2-c2noc(=O)[nH]2)nc1 [compound A, 3-[2-(5-{[1-(5-ethoxypyrimidin-2-yl)-2-isopropyl-6-oxo-4-propyl-1,6-dihydropyrimidin-5-yl]methyl}pyridin-2-yl)phenyl]-1,2,4-oxadiazol-5(4H)-one] | no significant increase in lung weight | significant decrease in hydroxyproline in the lung | significant decrease in hydroxyproline in the lung | significant decrease in lung weight | larger decrease than the losartan administration group |
| Cc1ccc(=O)n(-c2ccccc2)c1 [pirfenidone] | significant increase in lung weight |  | no significant difference |  |  |
